Experimental findings from patent US20030215462A1, “Use of UGT inhibitors to increase bioavailability” (priority 2001, published 2003) are described below.

Where “and” joins values, the source holds several entries; their conditions need not be identical. Identical values can stand only once. Like-named read-outs stand apart in the source and are kept apart here.

The test system of assay [1] is T1, UGT enzymes of human liver microsomes.
T1 construct: percentage of control metabolism, 7-HFC glucuronidation; percentage of control metabolism, 7-HFC glucuronidation
Description: Inhibition of 7-HFC glucuronidation in human liver microsomes. The settings on record: for % of control metabolism (SD, n = 3), 7-HFC glucuronidation / IC50: 7-HFC 50 μM, 15 min; for % of control metabolism (SD, n = 3), 7-HFC glucuronidation: human liver microsomes 100 μg/ml; for IC50: 1 mM UDPGA. The format is biochemical.

For assay [2], the system named is UGT enzymes of human liver microsomes. The assay can be described thus: Inhibition of raloxifene glucuronidation (G1, G2) in human liver microsomes. The class given is biochemical. From the text:
Compounds were eluted using a binary solvent gradient system. […] Solvent B was methanol. […] Detection was at 280 nm.

Setting [3] is: G1, inhibitor 500 μM, raloxifene 50 μM, human liver microsomes 250 μg/ml, 15 min.
The mark [4] stands for this setting: G2, inhibitor 500 μM, raloxifene 50 μM, human liver microsomes 250 μg/ml, 15 min.
Setting [5] is: G1, inhibitor 100 μM, raloxifene 50 μM, human liver microsomes 250 μg/ml, 15 min.
Setting [6] is: G2, inhibitor 100 μM, raloxifene 50 μM, human liver microsomes 250 μg/ml, 15 min.

As for `COc1c2ccoc2cc2oc(=O)ccc12` [5-Methoxypsoralen (bergapten)], the “% of control metabolism (SD, n = 3), 7-HFC glucuronidation” value in assay [1] (inhibitor 500 μM) was 97 (1), % and 92 (1) %.

In the case of `Cc1cn([C@H]2C[C@H](N=[N+]=[N-])[C@@H](CO[C@@H]3O[C@H](C(=O)O)[C@@H](O)[C@H](O)[C@H]3O)O2)c(=O)[nH]c1=O` [AZT glucuronide], in assay [1] (inhibitor 500 μM), the “% of control metabolism (SD, n = 3), 7-HFC glucuronidation” value is 103 (1) %.

Take `CN(C)CCC=C1c2ccccc2CCc2ccccc21` [Amitriptyline, reference compound]: the “% of control metabolism (SD, n = 3), 7-HFC glucuronidation” value in assay [1] (inhibitor 500 μM) is listed as 94 (1) %. Also, in assay [2] (setting [3]), the “% of control metabolism (SD, n = 3), raloxifene glucuronide G1” value is listed as 138 (6) %. Moreover, the “% of control metabolism (SD, n = 3), raloxifene glucuronide G2” value in assay [2] (setting [4]) is 132 (5) %.

Turning to `O=C1O[C@H]([C@@H](O)CO)C(O)=C1O` [Ascorbic acid], the “% of control metabolism (SD, n = 3), 7-HFC glucuronidation” value in assay [1] (inhibitor 500 μM) is recorded as 99 (1) %.

`CCCCCCCCCCCCCCCC(=O)OC[C@H](O)[C@H]1OC(=O)C(O)=C1O` [Ascorbyl palmitate] yielded an IC50 in assay [1] of 200 µM. Besides, the “percentage of control metabolism, 7-HFC glucuronidation” value was 64 (1) % in assay [1] (inhibitor 100 μM); 51 (1) % in assay [1] (inhibitor 200 μM); 11 (3) % and 17 (0) % in assay [1] (inhibitor 500 μM). Besides, the “% of control metabolism (SD, n = 3), 7-HFC glucuronidation” value is 64 (1) % in assay [1] (inhibitor 100 μM); 51 (1) % in assay [1] (inhibitor 200 μM); 11 (3), % and 17 (0) % in assay [1] (inhibitor 500 μM). The “% of control metabolism (SD, n = 3), raloxifene glucuronide G1” value in assay [2] (setting [5]) is on record as 57 (2) %; in assay [2] (setting [3]), 26 (1) %. The “% of control metabolism (SD, n = 3), raloxifene glucuronide G2” value in assay [2] (setting [6]) was 71 (4) %; in assay [2] (setting [4]) it was 36 (5) %.

For `CCCCCCCCCCCCCCCCCC(=O)OC[C@H](O)[C@H]1OC(=O)C(O)=C1O` [Ascorbyl stearate], the “% of control metabolism (SD, n = 3), 7-HFC glucuronidation” value in assay [1] (inhibitor 500 μM) is given as 73 (2) %.

Take `CCCC(=O)OCC(O)C1OC(=O)C(OC(=O)CCC)=C1O` (stereo not drawn) [Ascorbyl-2,6-dibutyrate]: the “% of control metabolism (SD, n = 3), 7-HFC glucuronidation” value in assay [1] (inhibitor 500 μM) was 92 (1) %.

As for `CCCCCCCCCCCCCCCC(=O)O[C@H]1CC[C@@]2(C)C(=CC[C@H]3[C@@H]4CC[C@H]([C@H](C)CCCC(C)C)[C@@]4(C)CC[C@@H]32)C1` [Cholesteryl palmitate], the “% of control metabolism (SD, n = 3), 7-HFC glucuronidation” value in assay [1] (inhibitor 500 μM) is 100 (3) %.

For `OCC=Cc1ccccc1` [Cinnamyl alcohol], the “% of control metabolism (SD, n = 3), 7-HFC glucuronidation” value in assay [1] (inhibitor 500 μM) is 87 (1) %.

For the compound `COc1cc(/C=C/CO)ccc1O` [Coniferol], the “% of control metabolism (SD, n = 3), 7-HFC glucuronidation” value in assay [1] (inhibitor 500 μM) is 87 (0) %.

For `C[C@]12CC[C@@H]3c4ccc(O)cc4CC[C@H]3[C@@H]1C[C@@H](O)[C@@H]2O` [Estriol], the “% of control metabolism (SD, n = 3), 7-HFC glucuronidation” value in assay [1] (inhibitor 500 μM) is recorded as 84 (2) %. Besides, the “% of control metabolism (SD, n = 3), raloxifene glucuronide G1” value in assay [2] (setting [3]) is recorded as 46 (3) %. Further, in assay [2] (setting [4]), the “% of control metabolism (SD, n = 3), raloxifene glucuronide G2” value is listed as 60 (3) %.

Take `CCCCCCCCCCCCCCCC(=O)OCC` [Ethyl palmitate]: the “% of control metabolism (SD, n = 3), 7-HFC glucuronidation” value in assay [1] (inhibitor 500 μM) is recorded as 89 (3) %.

On to `O=C(O)c1cc(O)c(O)c(O)c1` [Gallic acid], for which the “% of control metabolism (SD, n = 3), 7-HFC glucuronidation” value in assay [1] (inhibitor 500 μM) was 117 (2) %.

`CCCCCCCCCCCCOC(=O)c1cc(O)c(O)c(O)c1` [Lauryl gallate]: in assay [1], half-maximal inhibition (IC50) was put at 100 µM. The “percentage of control metabolism, 7-HFC glucuronidation” value in assay [1] (inhibitor 25 μM) is 92 (3) %; in assay [1] (inhibitor 50 μM), 76 (2) %; in assay [1] (inhibitor 100 μM) it was 43 (2) % and 49 (1) %; in assay [1] (inhibitor 200 μM), 22 (1) %; in assay [1] (inhibitor 500 μM), 18 (6) %. In addition, the “% of control metabolism (SD, n = 3), 7-HFC glucuronidation” value in assay [1] (inhibitor 25 μM) is 92 (3) %; in assay [1] (inhibitor 50 μM), 76 (2) %; in assay [1] (inhibitor 100 μM), 43 (2) % and 49 (1) %; in assay [1] (inhibitor 200 μM) it was 22 (1) %; in assay [1] (inhibitor 500 μM), 18 (6) %. In addition, the “% of control metabolism (SD, n = 3), raloxifene glucuronide G1” value is 64 (4) % in assay [2] (setting [5]) and 7 (0) % in assay [2] (setting [3]). The “% of control metabolism (SD, n = 3), raloxifene glucuronide G2” value in assay [2] (setting [6]) was 85 (3) %; in assay [2] (setting [4]), 37 (1) %.

`CC(C)[C@@H]1CC[C@@H](C)C[C@H]1O[C@@H]1O[C@H](C(=O)O)[C@@H](O)[C@H](O)[C@H]1O` [Menthol glucuronide]: in assay [1] (inhibitor 500 μM), the “% of control metabolism (SD, n = 3), 7-HFC glucuronidation” value is listed as 94 (4) %. In assay [2], the “% of control metabolism (SD, n = 3), raloxifene glucuronide G1” value is reported as 91 (2) % and the “% of control metabolism (SD, n = 3), raloxifene glucuronide G2” value is recorded as 84 (1) %.

For the compound `COc1ccc2cc(CCC(C)=O)ccc2c1` [Nabumetone], the “% of control metabolism (SD, n = 3), 7-HFC glucuronidation” value in assay [1] (inhibitor 500 μM) is reported as 81 (3) %. Further, the “% of control metabolism (SD, n = 3), raloxifene glucuronide G1” value in assay [2] (setting [3]) is 75 (2) %. Also, the “% of control metabolism (SD, n = 3), raloxifene glucuronide G2” value in assay [2] (setting [4]) is 80 (2) %.

Regarding `COc1ccc2cc([C@H](C)C(=O)O)ccc2c1` [Naproxen Free Acid], the “% of control metabolism (SD, n = 3), 7-HFC glucuronidation” value in assay [1] (inhibitor 500 μM) is 83 (1) %. Moreover, in assay [2], the “% of control metabolism (SD, n = 3), raloxifene glucuronide G1” value was 81 (3) % and the “% of control metabolism (SD, n = 3), raloxifene glucuronide G2” value is given as 78 (2) %.

Turning to `COc1ccc2cc([C@H](C)C(=O)[O-])ccc2c1.[Na+]` [Naproxen Na salt], the “% of control metabolism (SD, n = 3), 7-HFC glucuronidation” value in assay [1] (inhibitor 500 μM) is on record as 82 (1) %.

Turning to `CC(C)=CCC/C(C)=C\CO` [Nerol], the “% of control metabolism (SD, n = 3), 7-HFC glucuronidation” value in assay [1] (inhibitor 500 μM) is 71 (2) %.

In the case of `CCCCCCCCCCCCCCCC(=O)O` [Palmitic acid], the “% of control metabolism (SD, n = 3), 7-HFC glucuronidation” value in assay [1] (inhibitor 500 μM) is 104 (2) %.

Turning to `CCCCCCCCCCCCCCCC(=O)OC/C=C(C)/C=C/C=C(C)/C=C/C1=C(C)CCCC1(C)C` [Retinol palmitate], the entries for the “% of control metabolism (SD, n = 3), 7-HFC glucuronidation” value in assay [1] (inhibitor 100 μM), in assay [1] (inhibitor 200 μM) and in assay [1] (inhibitor 500 μM) were 90 (3) %, 82 (1) % and 81 (4) %, respectively.

In the case of `CC(=O)OC/C=C(C)/C=C/C=C(C)/C=C/C1=C(C)CCCC1(C)C` [Retinyl acetate], the results for the “% of control metabolism (SD, n = 3), 7-HFC glucuronidation” value in assay [1] (inhibitor 100 μM), in assay [1] (inhibitor 200 μM) and in assay [1] (inhibitor 500 μM) were 72 (1) %, 60 (3) % and 48 (1) %, respectively.

For the compound `CC1=C(CC(=O)O)c2cc(F)ccc2/C1=C\c1ccc([S+](C)[O-])cc1` (stereo not drawn) [Sulindac], the “% of control metabolism (SD, n = 3), 7-HFC glucuronidation” value in assay [1] (inhibitor 500 μM) is on record as 85 (0) %. Further, the “% of control metabolism (SD, n = 3), raloxifene glucuronide G1” value in assay [2] (setting [5]) was 76 (6) %; in assay [2] (setting [3]), 25 (3) %. Besides, the “% of control metabolism (SD, n = 3), raloxifene glucuronide G2” value in assay [2] (setting [6]) is 79 (4) %; in assay [2] (setting [4]), 44 (2) %.

Turning to `C=CC[C@@H]1/C=C(\C)C[C@H](C)C[C@H](OC)[C@H]2O[C@@](O)(C(=O)C(=O)N3CCCC[C@H]3C(=O)O[C@H](/C(C)=C/[C@@H]3CC[C@@H](O)[C@H](OC)C3)[C@H](C)[C@@H](O)CC1=O)[C@H](C)C[C@@H]2OC` [Tacrolimus], the “% of control metabolism (SD, n = 3), 7-HFC glucuronidation” value in assay [1] (inhibitor 500 μM) is reported as 126 (4) %.

Take `CCCCNC(=O)NS(=O)(=O)c1ccc(C)cc1` [Tolbutamide]: the “% of control metabolism (SD, n = 3), 7-HFC glucuronidation” value in assay [1] (inhibitor 500 μM) was 100 (0) %. In assay [2], the “% of control metabolism (SD, n = 3), raloxifene glucuronide G1” value was 98 (7) % and the “% of control metabolism (SD, n = 3), raloxifene glucuronide G2” value was 91 (2) %.

Take `CC1=CC(=O)c2ccccc2C1=O` [Vitamin K3]: the “% of control metabolism (SD, n = 3), 7-HFC glucuronidation” value in assay [1] (inhibitor 500 μM) is 78 (2) %.

For the compound `O=[N+]([O-])c1ccc(O)cc1` [p-Nitrophenol, reference compound], the “% of control metabolism (SD, n = 3), 7-HFC glucuronidation” value in assay [1] (inhibitor 500 μM) was 62 (1) %. In addition, in assay [2], the “% of control metabolism, raloxifene G1” value is 37 (0), 42 (2) % and 49 (2), 51 (2) % and 63 (4), 66 (1) %; the “% of control metabolism, raloxifene G2” value was 37 (0), 42 (2) % and 49 (2), 51 (2) % and 63 (4), 66 (1) %.

Turning to `CCCCCCCCCCCCCCCC(=O)Oc1ccc([N+](=O)[O-])cc1` [p-Nitrophenyl palmitate], in assay [1] (inhibitor 500 μM), the “% of control metabolism (SD, n = 3), 7-HFC glucuronidation” value was 96 (1) %.

With `CCCCCCCCCCCCCCCC(=O)Oc1cccc2ccccc12` [α-Naphthyl palmitate], the “% of control metabolism (SD, n = 3), 7-HFC glucuronidation” value in assay [1] (inhibitor 500 μM) was 70 (3) %.
